Patent US12668600B2 (Kumquat Biosciences Inc., priority 2023, dated 2026)

Experiments:
Type in all cases: biochemical
[1] = biological target: T1, KRAS WT (Homo sapiens, UniProt P01116); assay: HTRF KRAS-SOS1 interaction assay, wildtype KRAS; details: binned ≤2 μM / >2 μM, read-out: Inhibition of KRAS WT (IC50)
T1 construct: made in house; host or cells: E. coli, e.g. BL21 (DE3)
Procedure, shortened: (§1)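 GST-tagged KRAS (WT or mutant) with anti-GST-Eu donor, mixed with His-hSOS1 and anti-6His-XL665 acceptor. Buffer ~5 mM HEPES pH 7.4, ~150 mM NaCl, ~1 mM DTT, 0.05% BSA, 0.0025% Igepal; incubated about 10 min or longer. HTRF 665/620 ratio, compounds in duplicate up to 10 μM, IC50 derived.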

[2] = biological target: T2, KRAS G12V (Homo sapiens, UniProt P01116, G12V); assay: HTRF KRAS-SOS1 interaction assay, KRAS G12V; details: binned ≤2 μM / >2 μM, read-out: Inhibition of KRAS G12V (IC50)
T2 construct: made in house; host or cells: E. coli, e.g. BL21 (DE3)
Procedure, shortened: as §1

[3] = biological target: T3, KRAS G12S (Homo sapiens, UniProt P01116, G12S); assay: HTRF KRAS-SOS1 interaction assay, KRAS G12S; details: binned ≤2 μM / >2 μM, read-out: Inhibition of KRAS G12S (IC50)
T3 construct: made in house; host or cells: E. coli, e.g. BL21 (DE3)
Procedure, shortened: as §1

[4] = biological target: T4, KRAS G12D (Homo sapiens, UniProt P01116, G12D); assay: HTRF KRAS-SOS1 interaction assay, KRAS G12D; details: binned ≤2 μM / >2 μM, read-out: Inhibition of KRAS G12D (IC50)
T4 construct: made in house; host or cells: E. coli, e.g. BL21 (DE3)
Procedure, shortened: as §1

T3 sequence (P01116 1-188 isoform P01116-2 G12S): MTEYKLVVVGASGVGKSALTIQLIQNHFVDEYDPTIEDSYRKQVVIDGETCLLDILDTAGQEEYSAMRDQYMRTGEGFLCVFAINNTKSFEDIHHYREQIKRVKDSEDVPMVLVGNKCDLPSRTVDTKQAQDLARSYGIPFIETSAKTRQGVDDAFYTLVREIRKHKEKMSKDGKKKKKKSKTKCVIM
T2 sequence (P01116 1-188 isoform P01116-2 G12V): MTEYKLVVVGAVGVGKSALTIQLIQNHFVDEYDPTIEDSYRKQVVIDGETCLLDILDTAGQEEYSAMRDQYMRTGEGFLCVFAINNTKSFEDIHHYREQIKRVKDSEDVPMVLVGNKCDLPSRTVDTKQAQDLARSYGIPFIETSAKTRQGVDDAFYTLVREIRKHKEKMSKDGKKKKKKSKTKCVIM
T1 sequence (P01116 1-188 isoform P01116-2): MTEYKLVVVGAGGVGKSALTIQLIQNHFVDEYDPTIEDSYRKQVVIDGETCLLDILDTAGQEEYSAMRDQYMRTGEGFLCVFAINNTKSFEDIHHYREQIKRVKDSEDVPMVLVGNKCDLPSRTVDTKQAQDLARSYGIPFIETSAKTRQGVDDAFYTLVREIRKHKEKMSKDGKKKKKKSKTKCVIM
T4 sequence (P01116 1-188 isoform P01116-2 G12D): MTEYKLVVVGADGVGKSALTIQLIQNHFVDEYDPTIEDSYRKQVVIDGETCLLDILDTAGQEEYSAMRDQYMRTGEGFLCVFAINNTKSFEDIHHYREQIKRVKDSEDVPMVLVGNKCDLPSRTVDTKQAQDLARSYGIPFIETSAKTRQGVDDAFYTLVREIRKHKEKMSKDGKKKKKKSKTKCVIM

IC50 [1] [nM]	IC50 [2] [nM]	IC50 [3] [nM]	IC50 [4] [nM]	Compound
≤ 2000	≤ 2000	≤ 2000	≤ 2000	C/C=C/[C@H](c1cccnc1N)N1CCOc2c(Cl)c(-c3ccc(F)c4sc(N)c(C#N)c34)c(F)c3nc(OC[C@@]45CCCN4C[C@H](F)C5)nc1c23 (mixture of isomers) [Compound 756, 2-amino-4-(4-((R,E)-1-(2-aminopyridin-3-yl)but-2-en-1-yl)-8-chloro-10-fluoro-2-(((2R,7aS)-2-fluorotetrahydro-1H-pyrrolizin-7a(5H)-yl)methoxy)-5,6-dihydro-4H-[1,4]oxazepino[5,6,7-de]quinazolin-9-yl)-7-fluorobenzo[b]thiophene-3-carbonitrile]
≤ 2000	≤ 2000	≤ 2000	≤ 2000	COc1cnc(N)c([C@@H](C)N2CCOc3c(C(F)(F)F)c(-c4ccc(F)c5sc(N)c(C#N)c45)c(F)c4nc(OC[C@@]56CCCN5C[C@H](F)C6)nc2c34)c1 [Compound 815, 2-amino-4-(4-((R)-1-(2-amino-5-methoxypyridin-3-yl)ethyl)-10-fluoro-2-(((2R,7aS)-2-fluorotetrahydro-1H-pyrrolizin-7a(5H)-yl)methoxy)-8-(trifluoromethyl)-5,6-dihydro-4H-[1,4]oxazepino[5,6,7-de]quinazolin-9-yl)-7-fluorobenzo[b]thiophene-3-carbonitrile]
≤ 2000	≤ 2000	≤ 2000	≤ 2000	N#Cc1c(N)sc2c(F)ccc(-c3c(C(F)(F)F)c4c5c(nc(OCC6(CN7CCC(=CF)CC7)CC6)nc5c3F)N([C@H](CCC3CCOCC3)c3cccnc3N)CCO4)c12 [Compound 905, 2-amino-4-(4-((R)-1-(2-aminopyridin-3-yl)-3-(tetrahydro-2H-pyran-4-yl)propyl)-10-fluoro-2-((1-((4-(fluoromethylene)piperidin-1-yl)methyl)cyclopropyl)methoxy)-8-(trifluoromethyl)-5,6-dihydro-4H-[1,4]oxazepino[5,6,7-de]quinazolin-9-yl)-7-fluorobenzo[b]thiophene-3-carbonitrile]
≤ 2000	≤ 2000	≤ 2000	≤ 2000	C[C@H](c1cccnc1N)N1CCOc2c(Cl)c(-c3ccc(F)c4sc(N)c(C#N)c34)c(F)c3nc(OC[C@]45CCCN4[C@H](CN)CC5)nc1c23 [Compound 915, 2-amino-4-(2-(((3S,7aR)-3-(aminomethyl)tetrahydro-1H-pyrrolizin-7a(5H)-yl)methoxy)-4-((R)-1-(2-aminopyridin-3-yl)ethyl)-8-chloro-10-fluoro-5,6-dihydro-4H-[1,4]oxazepino[5,6,7-de]quinazolin-9-yl)-7-fluorobenzo[b]thiophene-3-carbonitrile]
≤ 2000	≤ 2000	≤ 2000	≤ 2000	N#Cc1c(N)sc2c(F)ccc(-c3c(Cl)c4c5c(nc(OC[C@@]67CCCN6C[C@H](F)C7)nc5c3F)N([C@@H](c3cccnc3N)C(F)(F)F)CCO4)c12 [Compound 833, 2-amino-4-(4-((S)-1-(2-aminopyridin-3-yl)-2,2,2-trifluoroethyl)-8-chloro-10-fluoro-2-(((2R,7aS)-2-fluorotetrahydro-1H-pyrrolizin-7a(5H)-yl)methoxy)-5,6-dihydro-4H-[1,4]oxazepino[5,6,7-de]quinazolin-9-yl)-7-fluorobenzo[b]thiophene-3-carbonitrile]
≤ 2000	≤ 2000	≤ 2000	≤ 2000	CNc1sc2c(F)ccc(-c3c(C(F)(F)F)c4c5c(nc(OC[C@@]67CCCN6C[C@H](F)C7)nc5c3F)N([C@H](CCC3CCOCC3)c3cccnc3N)CCO4)c2c1C#N [Compound 709, 4-(4-((R)-1-(2-aminopyridin-3-yl)-3-(tetrahydro-2H-pyran-4-yl)propyl)-10-fluoro-2-(((2R,7aS)-2-fluorotetrahydro-1H-pyrrolizin-7a(5H)-yl)methoxy)-8-(trifluoromethyl)-5,6-dihydro-4H-[1,4]oxazepino[5,6,7-de]quinazolin-9-yl)-7-fluoro-2-(methylamino)benzo[b]thiophene-3-carbonitrile]
≤ 2000	≤ 2000	≤ 2000	≤ 2000	C[C@@H]1CN(CC2(COc3nc4c5c(c(C(F)(F)F)c(-c6ccc(F)c7sc(N)c(C#N)c67)c(F)c5n3)OCCN4[C@H](C)c3cccnc3N)CC2)CCO1 (single isomer, unassigned) [Compound 812]
≤ 2000	≤ 2000	≤ 2000	≤ 2000	N#Cc1c(N)sc2c(F)ccc(-c3c(Cl)c4c5c(nc(OC[C@@]67CCCN6C[C@@]6(CC6(F)F)C7)nc5c3F)N([C@@H](c3cccnc3N)C(F)F)CCO4)c12 [Compound 831, 2-amino-4-(4-((S)-1-(2-aminopyridin-3-yl)-2,2-difluoroethyl)-8-chloro-2-(((1S,7a′S)-2,2-difluorodihydro-1′H,3′H-spiro[cyclopropane-1,2′-pyrrolizin]-7a′(5′H)-yl)methoxy)-10-fluoro-5,6-dihydro-4H-[1,4]oxazepino[5,6,7-de]quinazolin-9-yl)-7-fluorobenzo[b]thiophene-3-carbonitrile]
≤ 2000	≤ 2000	≤ 2000	≤ 2000	N#Cc1c(N)sc2c(F)ccc(-c3c(Cl)c4c5c(nc(OC[C@@]67CCCN6C[C@H](F)C7)nc5c3F)N(C(/C=C/C(F)(F)F)c3cccnc3N)CCO4)c12 (mixture of isomers) [Compound 828, 2-amino-4-(4-((E)-1-(2-aminopyridin-3-yl)-4,4,4-trifluorobut-2-en-1-yl)-8-chloro-10-fluoro-2-(((2R,7aS)-2-fluorotetrahydro-1H-pyrrolizin-7a(5H)-yl)methoxy)-5,6-dihydro-4H-[1,4]oxazepino[5,6,7-de]quinazolin-9-yl)-7-fluorobenzo[b]thiophene-3-carbonitrile]
≤ 2000	≤ 2000	≤ 2000	> 2000	Cc1cnc(N)c([C@@H](C)N2CCOc3c(C(F)(F)F)c(-c4ccc(F)c5sc(N)c(C#N)c45)c(F)c4nc(OC[C@@]56CCCN5C[C@H](F)C6)nc2c34)n1 (single isomer, unassigned) [Compound 718]
≤ 2000	≤ 2000	≤ 2000	≤ 2000	C=C1CN2CCC[C@@]2(COc2nc3c4c(c(C(F)(F)F)c(-c5ccc(F)c6sc(N)c(C#N)c56)c(F)c4n2)OCCN3[C@H](C)c2cccnc2N)C1 [Compound 621, 2-amino-4-(4-((R)-1-(2-aminopyridin-3-yl)ethyl)-10-fluoro-2-(((S)-2-methylenetetrahydro-1H-pyrrolizin-7a(5H)-yl)methoxy)-8-(trifluoromethyl)-5,6-dihydro-4H-[1,4]oxazepino[5,6,7-de]quinazolin-9-yl)-7-fluorobenzo[b]thiophene-3-carbonitrile]
≤ 2000	≤ 2000	≤ 2000	≤ 2000	C[C@H](c1cncnc1N)N1CCOc2c(C(F)(F)F)c(-c3ccc(F)c4sc(N)c(C#N)c34)c(F)c3nc(OCC4(CN5CCC(=CF)CC5)CC4)nc1c23 [Compound 916, 2-amino-4-(4-((R)-1-(4-aminopyrimidin-5-yl)ethyl)-10-fluoro-2-((1-((4-(fluoromethylene)piperidin-1-yl)methyl)cyclopropyl)methoxy)-8-(trifluoromethyl)-5,6-dihydro-4H-[1,4]oxazepino[5,6,7-de]quinazolin-9-yl)-7-fluorobenzo[b]thiophene-3-carbonitrile]
≤ 2000	≤ 2000	≤ 2000	≤ 2000	C=C1CN2CCC[C@@]2(COc2nc3c4c(c(C(F)(F)F)c(-c5ccc(F)c6sc(N)c(C#N)c56)c(F)c4n2)OCCN3[C@H](C)c2cncnc2N)C1 [Compound 680, 2-amino-4-(4-((R)-1-(4-aminopyrimidin-5-yl)ethyl)-10-fluoro-2-(((S)-2-methylenetetrahydro-1H-pyrrolizin-7a(5H)-yl)methoxy)-8-(trifluoromethyl)-5,6-dihydro-4H-[1,4]oxazepino[5,6,7-de]quinazolin-9-yl)-7-fluorobenzo[b]thiophene-3-carbonitrile]
≤ 2000	≤ 2000	≤ 2000	≤ 2000	C[S+]([O-])CCC[C@H](c1cccnc1N)N1CCOc2c(C(F)(F)F)c(-c3ccc(F)c4sc(N)c(C#N)c34)c(F)c3nc(OC[C@@]45CCCN4C[C@H](F)C5)nc1c23 (mixture of isomers) [Compound 691, 2-amino-4-(4-((1R)-1-(2-aminopyridin-3-yl)-4-(methylsulfinyl)butyl)-10-fluoro-2-(((2R,7aS)-2-fluorotetrahydro-1H-pyrrolizin-7a(5H)-yl)methoxy)-8-(trifluoromethyl)-5,6-dihydro-4H-[1,4]oxazepino[5,6,7-de]quinazolin-9-yl)-7-fluorobenzo[b]thiophene-3-carbonitrile]
≤ 2000	≤ 2000	≤ 2000	≤ 2000	C[C@H](c1cccnc1N)N1CCOc2c(Cl)c(-c3ccc(F)c4sc(N)c(C#N)c34)c(F)c3nc(OC[C@@]45CCCN4C[C@H](F)C5)nc1c23 [Compound 850, 2-amino-4-(4-(1-(2-aminopyridin-3-yl)ethyl)-8-chloro-10-fluoro-2-(((2R,7aS)-2-fluorotetrahydro-1H-pyrrolizin-7a (5H)-yl)methoxy)-5,6-dihydro-4H-[1,4]oxazepino[5,6,7-de]quinazolin-9-yl)-7-fluorobenzo[b]thiophene-3-carbonitrile]
